Laboratory results: the NIST ThermoML archive (doi:10.1021/je034093m)
Where “and” joins values, the source holds several entries; their conditions need not be identical. Equal entries are not always repeated. ± gives the expanded uncertainty stated by the source.

Details: Capillary rise

## CC(C)C [2-methylpropane]
255.02 K
  surface tension liquid-gas: 14.85 ± 0.16 mN/m
256.94 K
  surface tension liquid-gas: 14.69 ± 0.16 mN/m
258.83 K
  surface tension liquid-gas: 14.36 ± 0.16 mN/m and 14.37 ± 0.16 mN/m
261.09 K
  surface tension liquid-gas: 14.17 ± 0.16 mN/m
262.95 K
  surface tension liquid-gas: 14.02 ± 0.16 mN/m and 14.03 ± 0.16 mN/m
264.86 K
  surface tension liquid-gas: 13.7 ± 0.16 mN/m and 13.72 ± 0.16 mN/m
267.09 K
  surface tension liquid-gas: 13.46 ± 0.16 mN/m and 13.44 ± 0.16 mN/m
268.86 K
  surface tension liquid-gas: 13.16 ± 0.16 mN/m
270.9 K
  surface tension liquid-gas: 12.95 ± 0.16 mN/m and 12.97 ± 0.16 mN/m
273.38 K
  surface tension liquid-gas: 12.68 ± 0.16 mN/m
275.39 K
  surface tension liquid-gas: 12.57 ± 0.16 mN/m and 12.6 ± 0.16 mN/m
277.16 K
  surface tension liquid-gas: 12.29 ± 0.16 mN/m
279.34 K
  surface tension liquid-gas: 12.06 ± 0.16 mN/m
281.3 K
  surface tension liquid-gas: 11.77 ± 0.16 mN/m and 11.75 ± 0.16 mN/m
283.29 K
  surface tension liquid-gas: 11.62 ± 0.16 mN/m
285.43 K
  surface tension liquid-gas: 11.28 ± 0.16 mN/m
287.5 K
  surface tension liquid-gas: 11.14 ± 0.16 mN/m and 11.13 ± 0.16 mN/m
289.31 K
  surface tension liquid-gas: 10.86 ± 0.16 mN/m
291.65 K
  surface tension liquid-gas: 10.74 ± 0.16 mN/m and 10.72 ± 0.16 mN/m
293.66 K
  surface tension liquid-gas: 10.5 ± 0.16 mN/m
295.75 K
  surface tension liquid-gas: 10.28 ± 0.16 mN/m
297.83 K
  surface tension liquid-gas: 10.01 ± 0.16 mN/m and 10.05 ± 0.16 mN/m
299.48 K
  surface tension liquid-gas: 9.84 ± 0.16 mN/m
301.43 K
  surface tension liquid-gas: 9.57 ± 0.16 mN/m and 9.6 ± 0.16 mN/m
303.91 K
  surface tension liquid-gas: 9.37 ± 0.16 mN/m and 9.38 ± 0.16 mN/m
305.75 K
  surface tension liquid-gas: 9.14 ± 0.16 mN/m
307.41 K
  surface tension liquid-gas: 8.98 ± 0.16 mN/m
309.49 K
  surface tension liquid-gas: 8.75 ± 0.16 mN/m and 8.77 ± 0.16 mN/m
311.81 K
  surface tension liquid-gas: 8.52 ± 0.16 mN/m and 8.51 ± 0.16 mN/m
313.49 K
  surface tension liquid-gas: 8.29 ± 0.16 mN/m and 8.31 ± 0.16 mN/m
315.82 K
  surface tension liquid-gas: 8.05 ± 0.16 mN/m and 8.09 ± 0.16 mN/m
317.75 K
  surface tension liquid-gas: 7.9 ± 0.16 mN/m and 7.91 ± 0.16 mN/m
319.32 K
  surface tension liquid-gas: 7.69 ± 0.16 mN/m and 7.68 ± 0.16 mN/m
321.96 K
  surface tension liquid-gas: 7.45 ± 0.16 mN/m and 7.46 ± 0.16 mN/m
323.71 K
  surface tension liquid-gas: 7.25 ± 0.16 mN/m and 7.22 ± 0.16 mN/m
325.37 K
  surface tension liquid-gas: 7.02 ± 0.16 mN/m and 7.04 ± 0.16 mN/m
327.8 K
  surface tension liquid-gas: 6.79 ± 0.16 mN/m and 6.81 ± 0.16 mN/m
329.49 K
  surface tension liquid-gas: 6.71 ± 0.16 mN/m
331.68 K
  surface tension liquid-gas: 6.42 ± 0.16 mN/m
333.28 K
  surface tension liquid-gas: 6.29 ± 0.16 mN/m

## CCC [propane]
253.08 K
  surface tension liquid-gas: 12.98 ± 0.16 mN/m
254.8 K
  surface tension liquid-gas: 12.7 ± 0.16 mN/m and 12.69 ± 0.16 mN/m
256.89 K
  surface tension liquid-gas: 12.38 ± 0.16 mN/m
258.68 K
  surface tension liquid-gas: 12.21 ± 0.16 mN/m and 12.2 ± 0.16 mN/m
260.71 K
  surface tension liquid-gas: 11.94 ± 0.16 mN/m and 11.97 ± 0.16 mN/m
262.7 K
  surface tension liquid-gas: 11.56 ± 0.16 mN/m and 11.58 ± 0.16 mN/m
265.09 K
  surface tension liquid-gas: 11.31 ± 0.16 mN/m and 11.32 ± 0.16 mN/m
267.09 K
  surface tension liquid-gas: 11.06 ± 0.16 mN/m and 11.05 ± 0.16 mN/m
268.88 K
  surface tension liquid-gas: 10.81 ± 0.16 mN/m
270.72 K
  surface tension liquid-gas: 10.52 ± 0.16 mN/m and 10.53 ± 0.16 mN/m
273.2 K
  surface tension liquid-gas: 10.17 ± 0.16 mN/m
275.38 K
  surface tension liquid-gas: 9.97 ± 0.16 mN/m
277.43 K
  surface tension liquid-gas: 9.71 ± 0.16 mN/m
279.39 K
  surface tension liquid-gas: 9.4 ± 0.16 mN/m
281.48 K
  surface tension liquid-gas: 9.14 ± 0.16 mN/m and 9.15 ± 0.16 mN/m
289.27 K
  surface tension liquid-gas: 8.14 ± 0.16 mN/m and 8.15 ± 0.16 mN/m
293.85 K
  surface tension liquid-gas: 7.49 ± 0.16 mN/m
295.73 K
  surface tension liquid-gas: 7.23 ± 0.16 mN/m
297.4 K
  surface tension liquid-gas: 7.04 ± 0.16 mN/m
299.41 K
  surface tension liquid-gas: 6.85 ± 0.16 mN/m and 6.87 ± 0.16 mN/m
301.45 K
  surface tension liquid-gas: 6.62 ± 0.16 mN/m
303.54 K
  surface tension liquid-gas: 6.33 ± 0.16 mN/m and 6.34 ± 0.16 mN/m
305.17 K
  surface tension liquid-gas: 6.21 ± 0.16 mN/m and 6.22 ± 0.16 mN/m
308.01 K
  surface tension liquid-gas: 5.86 ± 0.16 mN/m
310.73 K
  surface tension liquid-gas: 5.55 ± 0.16 mN/m
314.39 K
  surface tension liquid-gas: 5.06 ± 0.16 mN/m
315.71 K
  surface tension liquid-gas: 4.85 ± 0.16 mN/m and 4.84 ± 0.16 mN/m
317.64 K
  surface tension liquid-gas: 4.62 ± 0.16 mN/m and 4.63 ± 0.16 mN/m
319.43 K
  surface tension liquid-gas: 4.42 ± 0.16 mN/m
321.41 K
  surface tension liquid-gas: 4.25 ± 0.16 mN/m and 4.26 ± 0.16 mN/m
323.34 K
  surface tension liquid-gas: 4.01 ± 0.16 mN/m and 4.02 ± 0.16 mN/m
325.32 K
  surface tension liquid-gas: 3.8 ± 0.16 mN/m and 3.81 ± 0.16 mN/m
327.4 K
  surface tension liquid-gas: 3.6 ± 0.16 mN/m and 3.62 ± 0.16 mN/m
329.79 K
  surface tension liquid-gas: 3.32 ± 0.16 mN/m and 3.31 ± 0.16 mN/m
331.79 K
  surface tension liquid-gas: 3.12 ± 0.16 mN/m and 3.13 ± 0.16 mN/m
333.3 K
  surface tension liquid-gas: 2.94 ± 0.15 mN/m and 2.95 ± 0.15 mN/m
